For 31 compounds, IC50 and inhibition results are on record in patent US7135466B2 (Kirin Beer Kabushiki Kaisha, priority 1999, dated 2006).

Read-outs that look alike come from different tables or passages of the source.

Assay [1] addresses T1, PDGF-Ra (Homo sapiens, UniProt P16234).
T1 construct: host or cells: G-292 human osteosarcoma cells
As to the kind of experiment: Inhibitory activity against PDGF-Ra phosphorylation by PDGF-AA stimulation using G292. The settings on record: for IC50: > means inhibition at indicated concentration not more than 50%, < and << not less than 50%, read-out: PDGF (E) IC50; for inhibition at 0.1 µM: G292, figure within parentheses in >100( ), at 100 nM, read-out: PDGF (E) inhibition (%) at 100 nM. It counts as cell-based. Put shortly:
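Read-out: A450 from a sandwich ELISA (PY-20 capture, anti-PDGF-Ra detection, peroxidase colour) of lysates from G-292 cells given compound for 1 hr at 37 °C before a 5 min challenge with PDGF-AA at 50 ng/ml.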

Assay [2] has as its target T2, c-kit (Homo sapiens, UniProt P10721).
T2 construct: MO7e (human megakaryocytic leukemia cell line) which had been arrested for 20 hr; endogenous in cells; host or cells: MO7e human megakaryocytic leukemia cell line
As to the kind of experiment: Inhibitory activity against c-kit autophosphorylation (MO7e cells, h-SCF). It counts as cell-based. The conditions noted are these: MO7e cells, read-out: c-kit IC50. In a few lines:
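MO7e cells, arrested for 20 hr, were pretreated with test compound in DMSO for 1 hr and then stimulated with 50 ng/ml h-SCF for 5 min before lysis. Lysates were captured on immobilized anti-phosphotyrosine PY-20, probed with anti-c-kit antibody and HRP anti-rabbit IgG, and read colorimetrically at 450 nm.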

By IC50 is commonly meant the concentration that inhibits the measured activity by half. In general, inhibition refers to how much of the control response was suppressed.

T2 sequence (P10721 26-976): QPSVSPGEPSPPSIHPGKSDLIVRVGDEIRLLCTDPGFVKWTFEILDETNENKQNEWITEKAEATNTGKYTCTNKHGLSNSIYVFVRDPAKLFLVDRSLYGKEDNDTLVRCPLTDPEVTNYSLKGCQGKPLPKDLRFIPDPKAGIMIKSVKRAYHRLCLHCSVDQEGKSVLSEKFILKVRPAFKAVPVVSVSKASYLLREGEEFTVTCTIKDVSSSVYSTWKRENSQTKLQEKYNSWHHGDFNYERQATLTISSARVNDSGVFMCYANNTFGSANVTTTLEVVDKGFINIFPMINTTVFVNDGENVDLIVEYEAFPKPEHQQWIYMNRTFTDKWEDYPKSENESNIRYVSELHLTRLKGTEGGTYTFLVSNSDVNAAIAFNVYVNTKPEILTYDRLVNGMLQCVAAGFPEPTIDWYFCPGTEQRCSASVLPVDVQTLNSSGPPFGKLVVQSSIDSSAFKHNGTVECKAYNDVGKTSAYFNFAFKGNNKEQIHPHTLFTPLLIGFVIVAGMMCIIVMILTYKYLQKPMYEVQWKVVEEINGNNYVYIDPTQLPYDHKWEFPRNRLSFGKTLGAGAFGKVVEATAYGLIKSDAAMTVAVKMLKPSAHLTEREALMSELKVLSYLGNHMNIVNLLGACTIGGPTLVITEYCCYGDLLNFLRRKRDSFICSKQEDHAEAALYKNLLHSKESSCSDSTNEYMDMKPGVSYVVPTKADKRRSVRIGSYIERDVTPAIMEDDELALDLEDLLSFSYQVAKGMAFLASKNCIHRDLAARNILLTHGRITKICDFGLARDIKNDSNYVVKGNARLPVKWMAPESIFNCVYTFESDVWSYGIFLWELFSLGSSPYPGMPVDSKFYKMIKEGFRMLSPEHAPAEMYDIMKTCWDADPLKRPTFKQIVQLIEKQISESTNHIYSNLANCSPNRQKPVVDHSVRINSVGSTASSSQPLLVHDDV
T1 sequence (P16234 24-1089): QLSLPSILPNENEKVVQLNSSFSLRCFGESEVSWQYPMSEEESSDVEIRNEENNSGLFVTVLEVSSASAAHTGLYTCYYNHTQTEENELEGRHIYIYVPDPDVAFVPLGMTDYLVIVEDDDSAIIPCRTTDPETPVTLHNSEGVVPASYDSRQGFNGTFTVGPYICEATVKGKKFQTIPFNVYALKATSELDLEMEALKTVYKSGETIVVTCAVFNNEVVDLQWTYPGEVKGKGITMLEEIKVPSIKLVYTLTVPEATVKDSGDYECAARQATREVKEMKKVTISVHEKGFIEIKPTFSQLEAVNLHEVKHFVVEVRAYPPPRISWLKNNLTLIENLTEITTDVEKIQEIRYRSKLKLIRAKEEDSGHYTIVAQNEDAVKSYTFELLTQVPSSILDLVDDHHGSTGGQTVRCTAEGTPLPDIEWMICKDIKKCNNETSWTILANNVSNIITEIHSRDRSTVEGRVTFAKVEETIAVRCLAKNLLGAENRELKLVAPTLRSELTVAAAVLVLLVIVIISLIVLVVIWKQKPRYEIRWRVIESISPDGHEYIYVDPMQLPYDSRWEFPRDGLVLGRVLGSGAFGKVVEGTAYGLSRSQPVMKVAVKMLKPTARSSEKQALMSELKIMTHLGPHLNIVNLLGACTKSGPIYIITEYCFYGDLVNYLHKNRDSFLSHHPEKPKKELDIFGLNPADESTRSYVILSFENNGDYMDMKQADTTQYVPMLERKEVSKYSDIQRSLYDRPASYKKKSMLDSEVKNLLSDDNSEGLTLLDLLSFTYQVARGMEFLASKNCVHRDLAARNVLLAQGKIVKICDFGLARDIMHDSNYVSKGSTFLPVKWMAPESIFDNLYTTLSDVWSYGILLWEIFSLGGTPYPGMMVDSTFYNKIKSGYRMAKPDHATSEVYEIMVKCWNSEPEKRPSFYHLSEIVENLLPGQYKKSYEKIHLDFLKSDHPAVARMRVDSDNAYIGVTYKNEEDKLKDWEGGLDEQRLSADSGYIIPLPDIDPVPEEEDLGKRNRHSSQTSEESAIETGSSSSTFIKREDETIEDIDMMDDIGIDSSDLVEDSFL

For `COc1cc2ncnc(Oc3ccc(NC(=O)OCC4CCCC4)cc3)c2cc1OC` [Example 397, Cyclopentylmethyl N-{4-[(6,7-dimethoxy-4-quinazolinyl)oxy]phenyl}carbamate], the IC50 in assay [1] (Pharmacological Test Example 1) was less than 10 nM; in assay [2] (h-SCF 50 ng/ml), 77 nM.

For `COc1cc2ncnc(Oc3ccc(NC(=O)OCC4CCCC4)c(Cl)c3)c2cc1OC` [Example 398, Cyclopentylmethyl N-{2-chloro-4-[(6,7-dimethoxy-4-quinazolinyl)oxy]phenyl}carbamate], the IC50 in assay [1] (Pharmacological Test Example 1) was found to be 33 nM; in assay [2] (h-SCF 50 ng/ml), 462 nM.

With `COc1cc2ncnc(Oc3ccc(NC(=O)OCCN4CCOCC4)cc3)c2cc1OC` [Example 399, 2-Morpholinoethyl N-{4-[(6,7-dimethoxy-4-quinazolinyl)oxy]phenyl}carbamate], the figures for the IC50 in assay [1] and in assay [2] (50 ng/ml h-SCF) were 63 nM and 327 nM, respectively.

For the compound `CCCC(CCC)OC(=O)Nc1ccc(Oc2ncnc3cc(OC)c(OC)cc23)cc1` [Example 400, 1-Propylbutyl N-{4-[(6,7-dimethoxy-4-quinazolinyl)oxy]phenyl}carbamate], the IC50 is less than 10 nM in assay [1] and 671 nM in assay [2] (50 ng/ml h-SCF).

Take `CCCCC(CC)OC(=O)Nc1ccc(Oc2ncnc3cc(OC)c(OC)cc23)cc1` (stereo not shown) [Example 401, 1-Ethylpentyl N-{4-[(6,7-dimethoxy-4-quinazolinyl)oxy]phenyl}carbamate]: the IC50 in assay [1] is less than 10 nM; in assay [2] (50 ng/ml h-SCF), 586 nM.

In the case of `COc1cc2ncnc(Oc3ccc(NC(=O)Oc4ccccc4OC)cc3)c2cc1OC` [Example 403, 2-Methoxyphenyl N-{4-[(6,7-dimethoxy-4-quinazolinyl)oxy]phenyl}carbamate], the IC50 amounted to 14 nM in assay [1] and 93 nM in assay [2] (50 ng/ml h-SCF).

On to `C=C(C)COC(=O)Nc1ccc(Oc2ccnc3cc(OC)c(OC)cc23)cc1` [Example 404, 2-Methylallyl N-{4-[(6,7-dimethoxy-4-quinolyl)oxy]phenyl}carbamate], for which the 50% inhibitory concentration (IC50) in assay [1] is less than 10 nM; in assay [2] (50 ng/ml h-SCF) it was 81 nM.

On to `C=C(C)COC(=O)Nc1cc(C)c(Oc2ccnc3cc(OC)c(OC)cc23)cc1C` [Example 405, 2-Methylallyl N-{4-[(6,7-dimethoxy-4-quinolyl)oxy]-2,5-dimethylphenyl}carbamate], for which the half-maximal inhibitory concentration (IC50) in assay [1] came out at 46 nM; in assay [2] (50 ng/ml h-SCF), 126 nM.

In the case of `C=C(C)COC(=O)Nc1ccc(Oc2ccnc3cc(OC)c(OC)cc23)c(C)c1C` [Example 406, 2-Methylallyl N-{4-[(6,7-dimethoxy-4-quinolyl)oxy]-2,3-dimethylphenyl}carbamate], the IC50 in assay [1] was less than 10 nM; in assay [2] (50 ng/ml h-SCF), less than 30 nM.

As for `C=C(C)COC(=O)Nc1ccc(Oc2ncnc3cc(OC)c(OC)cc23)cc1` [Example 407, 2-Methylallyl N-{4-[(6,7-dimethoxy-4-quinazolinyl)oxy]phenyl}carbamate], the IC50 in assay [1] was found to be 26 nM; in assay [2] (50 ng/ml h-SCF), 68 nM.

Take `C#CCC(CC)OC(=O)Nc1cc(C)c(Oc2ccnc3cc(OC)c(OC)cc23)cc1C` (stereo not shown) [Example 409, 1-Ethyl-3-butynyl N-{4-[(6,7-dimethoxy-4-quinolyl)oxy]-2,5-dimethylphenyl}carbamate]: the IC50 turned out to be 26 nM in assay [1] and 392 nM in assay [2] (50 ng/ml h-SCF).

Regarding `C#CCC(CC)OC(=O)Nc1ccc(Oc2ccnc3cc(OC)c(OC)cc23)c(C)c1C` (stereo not shown) [Example 410, 1-Ethyl-3-butynyl N-{4-[(6,7-dimethoxy-4-quinolyl)oxy]-2,3-dimethylphenyl}carbamate], the results for the IC50 in assay [1] and in assay [2] (50 ng/ml h-SCF) were 12 nM and 79 nM, respectively.

Regarding `CCCCCC(C)OC(=O)Nc1ccc(Oc2ccnc3cc(OC)c(OC)cc23)cc1` (stereo not shown) [Example 411, 1-Methylhexyl N-{4-[(6,7-dimethoxy-4-quinolyl)oxy]phenyl}carbamate], the IC50 in assay [1] was 17 nM; in assay [2] (50 ng/ml h-SCF), 43 nM.

Take `CCCCCC(C)OC(=O)Nc1cc(C)c(Oc2ccnc3cc(OC)c(OC)cc23)cc1C` (stereo not shown) [Example 412]: the IC50 is 81 nM in assay [1] and 122 nM in assay [2] (50 ng/ml h-SCF).

Consider `CCCCCC(C)OC(=O)Nc1ccc(Oc2ccnc3cc(OC)c(OC)cc23)c(C)c1C` (stereo not shown) [Example 413, 1-Methylhexyl N-{4-[(6,7-dimethoxy-4-quinolyl)oxy]-2,3-dimethylphenyl}carbamate], for which the IC50 in assay [1] stood at 39 nM; in assay [2] (50 ng/ml h-SCF), 50 nM.

Turning to `COc1cc2nccc(Oc3ccc(NC(=O)OCCCN4CCCCC4)c(C)c3C)c2cc1OC` [Example 415, 3-Piperidinopropyl N-{4-[(6,7-dimethoxy-4-quinolyl)oxy]-2,3-dimethylphenyl}carbamate], the results for the concentration for half-maximal inhibition (IC50) in assay [1] and in assay [2] (50 ng/ml h-SCF) were 24 nM and 98 nM, respectively.

Turning to `COc1cc2nccc(Oc3ccc(NC(=O)OCN4C(=O)c5ccccc5C4=O)c(C)c3C)c2cc1OC` [Example 418, (1,3-Dioxo-2,3-dihydro-1H-2-isoindolyl)methyl N-{4-[(6,7-dimethoxy-4-quinolyl)oxy]-2,3-dimethylphenyl}carbamate], the values for the IC50 in assay [1] and in assay [2] (50 ng/ml h-SCF) were 26 nM and 401 nM, respectively.

Regarding `COc1cc2nccc(Oc3ccc(NC(=O)OCCN4C(=O)c5ccccc5C4=O)c(C)c3C)c2cc1OC` [Example 420, 2-(1,3-Dioxo-2,3-dihydro-1H-2-isoindolyl)ethyl N-{4-[(6,7-dimethoxy-4-quinolyl)oxy]-2,3-dimethylphenyl}carbamate], the values for the IC50 in assay [1] and in assay [2] (50 ng/ml h-SCF) were 16 nM and 77 nM, respectively.

Regarding `COc1cc2nccc(Oc3cc(C)c(NC(=O)OCCCN4CCOCC4)cc3C)c2cc1OC` [Example 422, 3-Morpholinopropyl N-{4-[(6,7-dimethoxy-4-quinolyl)oxy]-2,5-dimethylphenyl}carbamate], the IC50 in assay [1] is less than 10 nM; in assay [2] (50 ng/ml h-SCF), 119 nM.

In the case of `COc1cc2nccc(Oc3ccc(NC(=O)OCCCN4CCN(C)CC4)cc3)c2cc1OC` [Example 424, 3-(4-Methylpiperazino)propyl N-{4-[(6,7-dimethoxy-4-quinolyl)oxy]phenyl}carbamate], the IC50 in assay [1] was determined as 47 nM; in assay [2] (50 ng/ml h-SCF) it was 224 nM.

On to `COc1cc2nccc(Oc3cc(C)c(NC(=O)OCCCN4CCN(C)CC4)cc3C)c2cc1OC` [Example 425, 3-(4-Methylpiperazino)propyl N-{4-[(6,7-dimethoxy-4-quinolyl)oxy]-2,5-dimethylphenyl}carbamate], for which, in assay [1], the IC50 is more than 100 nM and the inhibition at 0.1 µM was determined as 5%. In addition, the IC50 in assay [2] (50 ng/ml h-SCF) was 464 nM.

Consider `CCN(CC)CCCOC(=O)Nc1ccc(Oc2ccnc3cc(OC)c(OC)cc23)cc1` [Example 426, 3-(Diethylamino)propyl N-{4-[(6,7-dimethoxy-4-quinolyl)oxy]phenyl}carbamate], for which the IC50 in assay [1] came out at 22 nM; in assay [2] (50 ng/ml h-SCF), 272 nM.

For the compound `CCN(CC)CCCOC(=O)Nc1cc(C)c(Oc2ccnc3cc(OC)c(OC)cc23)cc1C` [Example 427, 3-(Diethylamino)propyl N-{4-[(6,7-dimethoxy-4-quinolyl)oxy]-2,5-dimethylphenyl}carbamate], in assay [1], the IC50 was more than 100 nM and the inhibition at 0.1 µM was found to be 13%. The IC50 in assay [2] (50 ng/ml h-SCF) came out at 364 nM.

With `CCN(CC)CCCOC(=O)Nc1ccc(Oc2ccnc3cc(OC)c(OC)cc23)c(C)c1C` [Example 428, 3-(Diethylamino)propyl N-{4-[(6,7-dimethoxy-4-quinolyl)oxy]-2,3-dimethylphenyl}carbamate], the IC50 in assay [1] is 64 nM; in assay [2] (50 ng/ml h-SCF), 158 nM.

Consider `CCN(CC)CCCOC(=O)Nc1ccc(Oc2ncnc3cc(OC)c(OC)cc23)cc1` [Example 429, 3-(Diethylamino)propyl N-{4-[(6,7-dimethoxy-4-quinazolinyl)oxy]phenyl}carbamate], for which the IC50 came out at 54 nM in assay [1] and 603 nM in assay [2] (50 ng/ml h-SCF).

For `COc1cc2nccc(Oc3cc(C)c(NC(=O)OCc4ccccn4)cc3C)c2cc1OC` [Example 430, 2-Pyridylmethyl N-{4-[(6,7-dimethoxy-4-quinolyl)oxy]-2,5-dimethylphenyl}carbamate], the IC50 in assay [1] was 76 nM; in assay [2] (50 ng/ml h-SCF), 182 nM.

Take `COc1cc2nccc(Oc3ccc(NC(=O)OCc4ccccn4)c(C)c3C)c2cc1OC` [Example 431, 2-Pyridylmethyl N-{4-[(6,7-dimethoxy-4-quinolyl)oxy]-2,3-dimethylphenyl}carbamate]: the IC50 in assay [1] came to 17 nM; in assay [2] (50 ng/ml h-SCF), 43 nM.

Take `COc1cc2nccc(Oc3ccc(NC(=O)OCc4cccnc4)c(C)c3C)c2cc1OC` [Example 432, 3-Pyridylmethyl N-{4-[(6,7-dimethoxy-4-quinolyl)oxy]-2,3-dimethylphenyl}carbamate]: the IC50 in assay [1] is 13 nM; in assay [2] (50 ng/ml h-SCF) it was less than 30 nM.

Regarding `COc1cc2nccc(Oc3ccc(NC(=O)OCc4ccncc4)cc3)c2cc1OC` [Example 433, 4-Pyridylmethyl N-{4-[(6,7-dimethoxy-4-quinolyl)oxy]phenyl}carbamate], the IC50 in assay [1] is 11 nM; in assay [2] (50 ng/ml h-SCF), less than 30 nM.

`COc1cc2ncnc(Oc3ccc(NC(=O)OCc4ccncc4)cc3)c2cc1OC` [Example 434, 4-Pyridylmethyl N-{4-[(6,7-dimethoxy-4-quinazolinyl)oxy]phenyl}carbamate]: the IC50 in assay [1] was 20 nM; in assay [2] (50 ng/ml h-SCF) it was less than 30 nM.

For `CCN(CC)CCOC(=O)Nc1ccc(Oc2ccnc3cc(OC)c(OC)cc23)cc1` [Example 435, 2-(Diethylamino)ethyl N-{4-[(6,7-dimethoxy-4-quinolyl)oxy]phenyl}carbamate], the 50% inhibitory concentration (IC50) in assay [1] amounted to 33 nM; in assay [2] (50 ng/ml h-SCF), 445 nM.
